These results are taken from patent publication US20100041662A1, “Heterocyclic compounds as antiinflammatory agents” (priority 2006, published 2010).

Broadly, the IC50 is the midpoint of a concentration-inhibition curve.

Test [1] has as its target T1, human ALK5 (ALK5 T204D kinase domain) (Homo sapiens, UniProt P36897, T204D).
T1 construct: The kinase domain of human ALK5 (amino acids 200-503) is fused to an N-terminal histidine tag; made in house; host or cells: insect cells (baculovirus)
T1 sequence (P36897 200-503 T204D): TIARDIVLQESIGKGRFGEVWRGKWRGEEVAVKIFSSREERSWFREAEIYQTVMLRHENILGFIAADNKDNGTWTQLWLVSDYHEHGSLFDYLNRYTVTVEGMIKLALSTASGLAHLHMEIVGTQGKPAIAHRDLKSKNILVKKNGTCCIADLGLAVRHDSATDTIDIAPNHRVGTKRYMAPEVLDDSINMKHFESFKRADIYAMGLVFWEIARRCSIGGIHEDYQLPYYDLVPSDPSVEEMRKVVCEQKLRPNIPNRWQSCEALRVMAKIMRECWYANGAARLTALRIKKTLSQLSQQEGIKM
The experiment in a line: ALK5 kinase activity, [33P] phosphate incorporation into casein. The format is biochemical. Conditions: casein substrate. The protocol: The kinase activity of ALK5 is assessed by measuring radiolabelled phosphate [33P] incorporation in to the generic substrate, casein. The kinase domain of human ALK5 (amino acids 200-503) is fused to an N-terminal histidine tag. The kinase activity of ALK5 is rendered constitutive via point mutation at amino acid 204 (threonine to aspartate modification, ALK5 T204D) and the kinase construct is engineered to be expressed from a baculovirus expression construct in insect cells. The purified, recombinantly-expressed histidine-tagged ALK5 T204D protein is dissolved at 5.4 mg/ml in 50 mM Tris-HCl pH 8.0, 150 mM NaCl, 5 mM DTT. ALK5 T204D is dissolved to 2.5 μg/ml in assay buffer (Assay buffer: 20 mM Tris-HCl pH 7.4, 10 mM MgCl2, 2 mM MnCl2) on the day of use.
Test compounds and reference compounds are dissolved in assay buffer without DTT containing 5% (v/v) DMSO. Stock solutions of test and reference compounds are diluted in assay buffer with DTT (1.25 mM) containing 4.5% (v/v) DMSO. 10 μl of test or reference compound are added to the appropriate wells of 96 well U-bottomed plate. Total enzyme activity is determined by measuring ALK5 T204D activity in the absence of ALK5 kinase inhibitor reference compounds. Non-specific binding (NSB) is determined by measuring the activity of ALK5 T204D in the presence of ALK5 kinase inhibitor reference compounds. 10 μl of dephosphorylated casein stock solution (dephosphorylated casein is dissolved in ddH2O at 20 mg/ml) is added per well (200 μg/well final assay concentration). 20 μl of ALK5 T204D (2.5 μg/ml solution) is added per well (50 ng/well final assay concentration). The plates are left to incubate at room temperature for 10 minutes.
10 μl of ATP mix is added to the well to initiate the reaction (0.66 nM [^33P]ATP/1 μM unlabelled ATP/well final assay concentration). The ATP mix is prepared as follows, unlabelled ATP (3 mM) is dissolved in ddH2O and pH adjusted to 7.4. The stock concentration of [^33P]ATP is 10 μCi/μl. The appropriate volume of [^33P]ATP is added to unlabelled ATP solution such that the final assay concentration per well is 0.1 μCi. Following addition of the ATP mix, the plates are incubated at room temperature for 50 minutes. The kinase reaction is terminated by the addition of 50 μL Stop Buffer (20 mM Tris-HCl pH 7.4, 10 mM EDTA).
75 μl/well from the reaction plate is transferred to a Multiscreen-IP plate (MultiScreen-IP plates are prepared by added 50 μL of 70% (v/v) ethanol per well and incubated for 5 minutes at room temperature. The ethanol is removed by aspiration via a MultiScreen HTS Vacuum Manifold unit (Millipore, Cat no: MSVMHT500). The plates are washed twice by adding 200 μl/well ddH2O). The MultiScreen-IP plate is incubated at room temperature for 30 minutes to allowing binding of casein to the plate. The MultiScreen-IP plates are washed three times by adding 200 μl/well 100 mM phosphoric acid solution and the gasket is carefully removed from the back of the MultiScreen-IP plate and the plate dried in the oven for 30 minutes. The MultiScreen-IP plate is backsealed, 50 μL of Microscint™20 is added, then the plates are topsealed and radiolabelled casein detected and quantified on a TopCount™ plate-reader using the ^33P scintillation protocol.

Test [2] concerns the target T2, JAK2 (GST-JAK2(808-1132)) (Homo sapiens, UniProt O60674).
T2 construct: GST-JAK2(808-1132) was purchased from Invitrogen (Carlsbad, USA, #4288); purchased Invitrogen (Carlsbad, USA) #4288
The test can be described thus: JAK/TYK-kinase family profiling, Caliper mobility shift assay. The format is biochemical. Conditions: 20 μM ATP, JAK3tide substrate. The text has this: All four kinases of the JAK/TYK-kinase family were used as purified recombinant GST-fusion proteins, containing the active kinase domains. GST-JAK1(866-1154), GST-JAK3(811-1124), and GST-TYK2(888-1187) were expressed and purified by affinity chromatography at the EPK biology unit. GST-JAK2(808-1132) was purchased from Invitrogen (Carlsbad, USA, #4288).
The kinase assays were based on the Caliper mobility shift assay using the LabChip 3000 systems. This technology is similar to capillary electrophoresis and uses charge driven separation of substrate and product in a microfluidic chip.
All kinase reactions were performed in 384 well microtiter plates in a total reaction volume of 18 μl. The assay plates were prepared with 0.1 μl per well of test compound in the appropriate test concentration, as described under the section “preparation of compound dilutions”. The reactions were started by combining 9 μl of substrate mix (consisting of peptide and ATP) with 9 μl of kinase dilution. The reactions were incubated for 60 minutes at 30° C. and stopped by adding 70 μl of stop buffer (100 mM Hepes, 5% DMSO, 0.1% Coating reagent, 10 mM EDTA, 0.015% Brij 35).
Fluorescently labeled synthetic peptides were used as substrates in all reactions. A peptide derived from the sequence of IRS-1 (IRS-1 peptide, FITC-Ahx-KKSRGDYMTMQIG-NH2) was used for JAK1 and TYK2 and a peptide named JAK3tide (FITC-GGEEEEYFELVKKKK-NH2) for JAK2 and JAK3. Specific assay conditions are described in Table 1:
The terminated reactions were transferred to the Caliper LabChip 3000 reader and the turnover of each reaction was measured by determining the substrate/product ratio.
Test compounds were dissolved in DMSO (10 mM) and transferred into 1.4 mL flat bottom or V-shaped Matrix tubes carrying a unique 2D matrix chip by individual compound hubs. The numbers of these chips were distinctively linked to the individual compound identification numbers. The stock solutions were stored at −20° C. if not used immediately. For the test procedure the vials were defrosted and identified by a scanner whereby a working sheet was generated that guided the subsequent working steps.
Compound dilutions were made in 96 well plates. This format enabled the assay of maximally 40 individual test compounds at 8 concentrations (single points) including 4 reference compounds. The dilution protocol included the production of pre-dilution plates, master plates and assay plates:
Pre-dilution plates: 96 polypropylene well plates were used as pre-dilution plates. A total of 4 pre-dilution plates were prepared including 10 test compounds each on the plate positions A1-A10, one standard compound at A11 and one DMSO control at A12. All dilution steps were done on a HamiltonSTAR robot. Master plates: 100 μL of individual compound dilutions including standard compound and controls of the 4 “pre-dilution plates” were transferred into a 384 “master plate” including the following concentrations 1′820, 564, 182, 54.6, 18.2, 5.46, 1.82 and 0.546 μM, respectively in 90% of DMSO. Assay plates: Identical assay plates were then prepared by pipetting […] each of compound dilutions of the master plates into 384-well “assay plates”. In the following the compounds were mixed with 9 μL of assays components plus 9 μL enzyme corresponding to a 1:181 dilution steps enabling the final concentration of 10, 3.0, 1.0, 0.3, 0.1, 0.03, 0.01 and 0.003 μM, respectively. The preparation of the master plates were handled by the Matrix PlateMate Plus robot and replication of assay plates by the HummingBird robot.

Test [3] relates to bleomycin-induced pulmonary fibrosis. The settings on record: bleomycin-treated rats; cited from earlier work.

T2 sequence (O60674 808-1132): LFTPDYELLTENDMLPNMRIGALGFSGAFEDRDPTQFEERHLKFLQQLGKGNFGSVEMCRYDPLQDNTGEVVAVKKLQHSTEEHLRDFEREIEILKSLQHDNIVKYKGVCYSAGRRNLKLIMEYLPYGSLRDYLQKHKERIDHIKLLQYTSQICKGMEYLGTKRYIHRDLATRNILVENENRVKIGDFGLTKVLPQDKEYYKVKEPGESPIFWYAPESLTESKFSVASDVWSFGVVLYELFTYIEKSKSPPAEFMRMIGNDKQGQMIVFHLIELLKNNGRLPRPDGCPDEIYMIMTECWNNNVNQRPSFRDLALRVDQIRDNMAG

In turn, `O[C@H]1CC[C@H](Nc2ccc3ncc(-c4ccnc(-c5ccncc5)c4)n3n2)CC1` [Example 1.1, 4-(3-[2,4′]Bipyridinyl-4-yl-imidazo[1,2-b]pyridazin-6-ylamino)-cyclohexanol] gave a half-maximal inhibitory concentration (IC50) in test [1] of 42 nM.
Same read-out and setting: the figure for `Cn1cc(-c2cc(-c3cnc4ccc(NC5CCC(O)CC5)nn34)ccn2)cn1` (stereo not drawn) [Example 1.4, 4-{3-[2-(1-Methyl-1H-pyrazol-4-yl)-pyridin-4-yl]-imidazo[1,2-b]pyridazin-6-ylamino}-cyclohexanol] is 150 nM; for `OC1CCC(Nc2ccc3ncc(-c4cccc(-n5cccn5)c4)n3n2)CC1` (stereo not drawn) [Example 1.7, 4-[3-(3-Pyrazol-1-yl-phenyl)-imidazo[1,2-b]pyridazin-6-ylamino]-cyclohexanol] it is 5 nM.
Take `O=C(c1ccc(-c2cnc3ccc(NCc4cc(F)ccc4F)nn23)cc1)N1CCOCC1` [Example 2.4, {4-[6-(2,5-Difluoro-benzylamino)-imidazo[1,2-b]pyridazin-3-yl]-phenyl}-morpholin-4-yl-methanone]: the IC50 in test [2] came to 20 nM.
Still for that read-out and setting: the result for `O=C(NC1CCOCC1)c1cccc(-c2cnc3ccc(NCc4cc(F)ccc4F)nn23)c1` [Example 2.5] reads 21 nM.
With `OC1CCC(Nc2ccc3ncc(-c4ccnc(C5CC5)c4)n3n2)CC1` (stereo not drawn) [Example 1.6, 4-[3-(2-Cyclopropyl-pyridin-4yl)-imidazo[1,2-b]pyridazin-6-ylamino]-cyclohexanol], inhibition in test [1] was half-maximal at 15 nM (IC50).
As for `CN(C)C1CCN(C(=O)c2ccc(-c3cnc4ccc(NCc5cc(F)ccc5F)nn34)cc2)CC1` [Example 2.3, {4-[6-(2,5-Difluorobenzylamino)-imidazo[1,2-b]pyridazin-3-yl]-phenyl}-(4-dimethylamino-piperidin-1-yl)-methanone], the half-maximal inhibitory concentration (IC50) in test [2] is 14 nM.
Consider `Cc1ccc(-c2cc(-c3cnc4ccc(NC5CCC(O)CC5)nn34)ccn2)s1` (stereo not drawn) [Example 1.2, 4-{3-[2-(5-Methyl-thiophen-2-yl)-pyridin-4-yl]-imidazo[1,2-b]pyridazin-6-ylamino}-cyclohexanol], for which it took 36 nM to reach half-maximal inhibition in test [1] (IC50).
The same measure, in the same setting: the figure for `OC1CCC(Nc2ccc3ncc(-c4ccnc(-c5ccoc5)c4)n3n2)CC1` (stereo not drawn) [Example 1.3, 4-[3-(2-Furan-3-yl-pyridin-4-yl)-imidazo[1,2-b]pyridazin-6-ylamino]-cyclohexanol] is 5 nM.
Consider `O=C(NC1CCOCC1)c1ccc(-c2cnc3ccc(NCc4cc(F)ccc4F)nn23)cc1` [Example 2.7, 4-[6-(2,5-Difluorobenzylamino)-imidazo[1,2-b]pyridazin-3-yl]-N-(tetrahydro-pyran-4-yl)-benzamide], for which, in test [2], the 50% inhibitory concentration (IC50) worked out at 13 nM.
Still for that read-out and setting: the figure for `CN1CCN(C(=O)c2ccc(-c3cnc4ccc(NCc5cc(F)ccc5F)nn34)cc2)CC1` [Example 2.1, {4-[6-(2,5-Difluoro-benzylamino)-imidazo[1,2-b]pyridazin-3-yl]-phenyl}-(4-methyl-piperazin-1-yl)-methanone] is 16 nM; for `CCN1CCCC1CNC(=O)c1ccc(-c2cnc3ccc(NCc4cc(F)ccc4F)nn23)cc1` (stereo not drawn) [Example 2.6, 4-[6-(2,5-Difluoro-benzylamino)-imidazo[1,2-b]pyridazin-3-yl]-N-(1-ethyl-pyrrolidin-2-ylmethyl)-benzamide] it is 11 nM.
For the molecule `O=C(NCCN1CCOCC1)c1ccc(-c2cnc3ccc(NCc4cc(F)ccc4F)nn23)cc1` [Example 2.2, 4-[6(2,5-Difluorobenzylamino)-imidazo[1,2-b]pyridazin-3-yl]-N-(2-morpholin-4-yl-ethyl)benzamide], the half-inhibitory concentration (IC50) in test [2] is 8 nM.

B1: follistatin: an antagonist of activin signalling (protein, UniProt P19883 30-344, looked up)
Follistatin: GNCWLRQAKNGRCQVLYKTELSKEECCSTGRLSTSWTEEDVNDNTLFKWMIFNGGAPNCIPCKETCENVDCGPGKKCRMNKKNKPRCVCAPDCSNITWKGPVCGLDGKTYRNECALLKARCKEQPELEVQYQGRCKKTCRDVFCPGSSTCVVDQTNNAYCVTCNRICPEPASSEQYLCGNDGVTYSSACHLRKATCLLGRSIGLAYEGKCIKAKSCEDIQCTGGKKCLWDFKVGRGRCSLCDELCPDSKSDEPVCASDNATYASECAMKEAACSSGVLLEVKHSGSCNSISEDTEEEEEDEDQDYSFPISSILEW
Consider B1, for which, in test [3], the “destruction of lung architecture” value is reported as “ameliorated”; the lung fibrosis entry is “attenuated”; the “number of infiltrating cells” value is given as “markedly reduced”; the “number of macrophages and neutrophils in bronchoalveolar lavage” value is reported as “significantly reduced”. In test [3], the “protein content of bronchoalveolar lavage” value is reported as “reduced the protein content”.
